Results: US4393047A, “Antibiotic cytophagin and a process for producing the same” (Microbiochemical Research Foundation, priority 1981, dated 1983)

Tests used:
[1] = test system: Bacillus subtilis NRRL B-558; assay: Minimum growth inhibitory concentration, agar dilution method; assay type: cell-based; settings: pH 7
Description: (§1) **Determined by agar dilution method using a bouilon medium (pH:7).

[2] = test system: Bacillus subtilis PCI 219; assay: as above; assay type: cell-based; settings: pH 7
Description: as §1

Candida albicans 3147 = assay: as above; assay type: cell-based; settings: pH 7
Description: as §1

Escherichia coli K-12 = assay: as above; assay type: cell-based; settings: pH 7
Description: as §1

[3] = test system: Micrococcus lysodeikticus IFO 3333; assay: as above; assay type: cell-based; settings: pH 7
Description: as §1

[4] = test system: Mycobacterium smegmatis ATCC 607; assay: as above; assay type: cell-based; settings: pH 7
Description: as §1

[5] = test system: Pseudomonas aeruginosa A 3; assay: as above; assay type: cell-based; settings: pH 7
Description: as §1

Sarcina lutea PCI 1001 = assay: as above; assay type: cell-based; settings: pH 7
Description: as §1

[6] = test system: Staphylococcus aureus FDA 209P; assay: as above; assay type: cell-based; settings: bouillon medium pH 7
Description: as §1

[7] = test system: Staphylococcus aureus MS 8800; assay: as above; assay type: cell-based; settings: Staphylococcus aureus MS 8800, resistant to penicillin, tetracyclin, streptomycin and erythromycin, pH 7
Description: as §1

[8] = test system: Staphylococcus sp M-XX-0105; assay: as above; assay type: cell-based; settings: Staphylococcus sp M-XX-0105, resistant to amikacin, tobramycin and DKB, pH 7
Description: as §1

[9] = test system: various Gram-positive bacteria; assay: Activity against the growth of Gram-positive bacteria (Table 1); assay type: cell-based; settings: qualitative, from Table 1
Description: as §1

mouse = assay: Acute toxicity in mouse; assay type: in vivo; settings: ip., 200 mg/kg in DMSO/water, two groups of 3
Description: The acute toxicity of cytophagin was determined by using mouse as test animals.

[10] = Solubility in various solvents; assay type: physicochemical

Question: What does the source list for cytophagin?
Answer: MIC [1]: 1.56 µg/mL; MIC [2]: 1.56 µg/mL; MIC (Candida albicans 3147): 50 µg/mL; MIC (Escherichia coli K-12): > 100 µg/mL; MIC [3]: 0.1 µg/mL; MIC [4]: > 100 µg/mL; MIC [5]: > 100 µg/mL; MIC (Sarcina lutea PCI 1001): 0.1 µg/mL; MIC [6]: 1.56 µg/mL; MIC [7]: 1.56 µg/mL; MIC [8]: 2.5 µg/mL; activity against the growth of various Gram-positive bacteria [9]: strongly active; acute toxicity (survival) (mouse): All of them (two groups, each consisting of 3 mouse) survived; Solubility ([10]; acetic acid): Readily soluble; Solubility ([10]; acetone): hardly soluble; Solubility ([10]; chloroform): hardly soluble; Solubility ([10]; dimethylsulfoxide): Readily soluble; Solubility ([10]; ethanol): substantially soluble; Solubility ([10]; ethyl acetate): hardly soluble; Solubility ([10]; ethyl ether): hardly soluble; Solubility ([10]; methanol): substantially soluble; Solubility ([10]; water): hardly soluble
